The subject of series [1] is Mdr1 knockout Madin–Darby canine kidney (MDCK) cells.
Experimental: (§1) We also tested the permeabilities of the pure compounds in a cell-based trans-well permeability assay using Mdr1 knockout Madin–Darby canine kidney (MDCK) cells which minimize the endogenous efflux activity of traditional MDCK cells.[54]
(§2) The gMDCKI cell line (overexpressed cell line of Madin -Darby Canine Kidney which acquired from the NIH)
(§3) maintained in DMEM medium supplemented with 1% pen -strep, 5 µg/mL Plasmocin, and 10% FBS under
(§4) standard culture conditions (37 °C, 95% humidity, and 5% CO2), were seeded (0.75 x 10^5 cells) on the HTS
(§5) Transwell-96 permeable support (Corning) to form a confluent monolayer for two days.
(§6) All experimental steps were fully automated on Hamilton Vantage. Compound stock solution (1 mM in
(§7) DMSO) was diluted (10 μM final in HBSS, pH 7.4) with Lucifer Yellow as leakage indicator (20 μM). After
(§8) washing with HBSS buffer, the solution of test compounds was added to the apical side of the monolayers.
(§9) The plate was incubated for 3 h at 37 °C. T0 samples (10 µL of the 10 µM compounds diluted solution with
(§10) LY) were transferred to a 96-well plate, and then 40 µL of HBSS was added. After 3 hours, 50 μL basolateral
(§11) samples in the receiving plate were transferred to a fresh 96-well plate and added 100 μL of IS solution
(§12) (Propranolol). LY were read by plate reader and the samples were analyzed by LC/MS/MS.
(§13) The apparent permeability coefficient (Papp) is calculated from the permeation rate and compound
concentration at t=0h and t=3h. Where:
(§14) dQ/dt: amount of product present in the basal (A-B) or apical (B-A) compartment as a function of time
A: area of transwell (cm2).
(§15) C0: initial concentration of product applied in the apical (A -B) or basal (B-A) compartment (nmol/ml).
The conditions of series [2]: MDCK.
Experimental: as §1, §2, §3, §4, §5, §6, §7, §8, §9, §10, §11, §12, §13
concentration at t=0h and t=3h. Where:
as §14
A: area of transwell (cm2).
as §15
Series [3] is described as follows: PAMPA, individually resynthesized pure compounds (primary protocol).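 Further: artificial membrane of 1% soy lecithin in dodecane on a filter plate, donor and acceptor buffer PBS pH 7.4 with 5% DMSO, incubated overnight at room temperature.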
Experimental: (§16) assay was carried out with a 96-well donor plate with 0.45 μ hydrophobic Immobilon-P membrane supports
(§17) (Millipore MAIPNTR10) and a 96-well Teflon acceptor plate (Millipore MSSACCEPTOR). The PAMPA
protocol then proceeded as follows:
(§18) Donor well solutions were prepared to a volume of 1 000 µL with the analytes as a solution in 1X
(§19) PBS pH 7.4 and 5% DMSO. To a 3 mL Eppendorf tube was added 950 µL of 1X PBS pH 7.4, 40
Analyte – 10 µM per compound
(§20) sonicated (5 min) to ensure full dissolution of the lecithin. The donor membrane plate was turned
(§21) upside down and bottom of the membranes exposed. 5 µL of the 1% soy lecithin solution in
(§22) dodecane was then placed on the bottom of the membrane, allowing the drop to spread across the
(§23) full area of the membrane. Any membranes with visible damage were not used in the assay. The
(§24) membranes were allowed to equilibrate for 5 min before loading.
(§25) 3. Each well within the Teflon block acceptor plate that was to be used in the assay was then loaded
(§26) with 300 µL of 1X PBS pH 7.4 and 5% DMSO.
(§27) Working without break, 150 µL of each donor well solution was transferred from the to the 96-well
(§28) donor plate. Each mixture of interest was r un in quadruplicate, using a new well for each replicate.
(§29) As soon as the 96-well donor plate was finished being loaded, it was gently placed into the 96-well
(§30) Teflon acceptor plate, taking care not to trap any air bubbles beneath the membrane.
(§31) The donor/acceptor plates were covered gently with the lid to minimize evaporation and transferred
(§32) gently as a system to a sealed chamber and left to sit overnight at room temperature. The chamber
(§33) was kept from drying by placing a wet paper towel within to prevent evaporation.
(§34) After ~19-20 hours the donor plate was removed from the acceptor plate.
(§35) 50 µL of each well (donor and acceptor) were transferred to a 96 -well plate and diluted with 50 µL
(§36) of methanol prior to heat sealing and quantification by UPLC -MS.
The nature of series [4]: in vitro. To be noted: PAMPA.
Experimental: as §16, §17
protocol then proceeded as follows:
as §18, §19
Analyte – 10 µM per compound
as §20, §21, §22, §23, §24, §25, §26, §27, §28, §29, §30, §31, §32, §33, §34, §35, §36
The nature of series [5]: in vitro. To be noted: dog, pH 7.4.
Experimental: as §1, §2, §3, §4, §5, §6, §7, §8, §9, §10, §11, §12, §13
concentration at t=0h and t=3h. Where:
as §14
A: area of transwell (cm2).
as §15
For series [6] the following is noted: PAMPA.
Experimental: as §16, §17
protocol then proceeded as follows:
as §18, §19
Analyte – 10 µM per compound
as §20, §21, §22, §23, §24, §25, §26, §27, §28, §29, §30, §31, §32, §33, §34, §35, §36
Another series is described as follows: physchem. The conditions noted are these: pH 7.4, kinetic from dmso stock.
For series [7] the following is noted: PAMPA, 10 µM, pH 7.4.
The nature of series [8]: in vitro. To be noted: PAMPA, pH 7.4, Permeability (Papp) PAMPA (mixture).
The conditions of series [9]: 10 µM, pH 7.4.
Experimental: as §16, §17
protocol then proceeded as follows:
as §18, §19
Analyte – 10 µM per compound
as §20, §21, §22, §23, §24, §25, §26, §27, §28, §29, §30, §31, §32, §33, §34, §35, §36
Details of series [10]: method as in Fouché et al. To be noted: rat; ref Fouché et al.; cited from earlier work.
Details of series [11]: method as in Fouché et al. To be noted: ref Fouché et al.; cited from earlier work.

Converted amounts (≈) assume the structure as drawn. Where two headings read alike, the source gives them in different places. Positions of bridges follow the written chain, without caps; N, C: chain ends. Non-standard residues stand in square brackets, D forms with d. Residues, ends and D or L forms follow the SMILES beside them. NMeF = CN[C@@H](Cc1ccccc1)C(=O)O; NMeC = CN[C@@H](CS)C(=O)O; NMeA = CN[C@@H](C)C(=O)O; dAbu = CC[C@@H](N)C(=O)O; dNMeA = CN[C@H](C)C(=O)O; Abu = CC[C@H](N)C(=O)O; Nleu = CC(C)CNCC(=O)O; NPrGly = CCCNCC(=O)O

Experimental for physchem: Kinetic Solubility PBS Protocol
4 µL of 10 mM compound in DMSO stock was added to 196 µL 1 X PBS pH 7.4 in a 96 -well microplate to
get a final concentration of 200 µM to shake for 24 hours at 1000 rpm. The sample was filtered sample
using a 96-Multiscreen HTS filter plate (Millipore MSSL BPC50) and a positive pressure manifold.

On to `CCOC(=O)[C@@H]1CSCC(=O)N[C@H](CC)C(=O)N(C)[C@@H](C)C(=O)N[C@@H](CC(C)C)C(=O)N(C)[C@H](C)C(=O)N(CC(C)C)CC(=O)N[C@H](CC(C)C)C(=O)N(C)[C@H](C)C(=O)N[C@@H](CC(C)C)C(=O)N1C` [A1, O=C(N(C)[C@H](C(OCC)=O)CSCC(N[C@@H](C(N(C)[C@@H](C)C(N[C@@H](CC(C)C)C(N(C)[C@H](C)C(N(CC(C)C)CC(N[C@@H]1CC(C)C)=O)=O)=O)=O)=O)CC)=O)[C@H](CC(C)C)NC([C@@H](C)N(C)C1=O)=O] ({CH2CO}-[dAbu][NMeA]L[dNMeA][Nleu][dL][dNMeA]L[NMeC]-OEt; thioether N-9), for which the “MDCK Pe_avg” value in [1] (resynthesized stereoscan compounds, 10 μM, HBSS pH 7.4, 3 h) is 9.02 ×10⁻⁶ cm/s. In addition, the Papp is 9 ×10⁻⁶ cm/s in series [2]; 10 ×10⁻⁶ cm/s in series [3] (PAMPA Papp, Figure 5); approximately 10 ×10⁻⁶ cm/s in series [3] (Papp).
Turning to `CCOC(=O)[C@@H]1CSCC(=O)N[C@H](CC)C(=O)N(C)[C@@H](C)C(=O)N[C@@H](CC(C)C)C(=O)N2CCC[C@@H]2C(=O)N(CC(C)C)CC(=O)N[C@H](CC(C)C)C(=O)N(C)[C@H](C)C(=O)N[C@@H](CC(C)C)C(=O)N1C` [A1-4dP, O=C(N(C)[C@H](C(OCC)=O)CSCC(N[C@@H](C(N(C)[C@@H](C)C(N[C@@H](CC(C)C)C(N1[C@H](CCC1)C(N(CC(C)C)CC(N[C@@H]2CC(C)C)=O)=O)=O)=O)=O)CC)=O)[C@H](CC(C)C)NC([C@@H](C)N(C)C2=O)=O] ({CH2CO}-[dAbu][NMeA]L[dP][Nleu][dL][dNMeA]L[NMeC]-OEt; thioether N-9), the “MDCK Papp” value in series [1] (MDCK) is listed as 0.0 × 10^–6 cm/s. In “in vitro [4]” (pH 7.4, PAMPA Pe_avg), this compound had a Papp at 10 µM of 0.398 ×10⁻⁶ cm/s. For the same compound, the Papp A→B at 3 h, 10 µM in the series “in vitro [5]” stood at 0.0246 ×10⁻⁶ cm/s. For the same compound, the Papp in [6] was 0.3 ×10⁻⁶ cm/s.
Compound `CCCN1CC(=O)N[C@@H](CC)C(=O)N(C)[C@@H](C)C(=O)N[C@@H](CC(C)C)C(=O)N(C)[C@H](C(=O)OCC)CSCC(=O)N[C@@H](CC(C)C)C(=O)N(C)[C@@H](C)C(=O)N[C@@H](CC(C)C)C(=O)N2CCC[C@@H]2C1=O` [LA04, O=C(N(C)[C@H](C(OCC)=O)CSCC(N[C@H](C(N(C)[C@@H](C)C(N[C@@H](CC(C)C)C(N1[C@H](CCC1)C(N(CCC)CC(N[C@H]2CC)=O)=O)=O)=O)=O)CC(C)C)=O)[C@H](CC(C)C)NC([C@H](C)N(C)C2=O)=O] ({CH2CO}-L[NMeA]L[dP][NPrGly][Abu][NMeA]L[NMeC]-OEt; thioether N-9) came in with a kinetic solubility at 24 h in “physchem” of 200 µM (≈ 199 µg/mL). In addition, the “%R_avg” value in [7] was 8.2%. Besides, the Papp at 10 µM in “in vitro [8]” amounted to 4 ×10⁻⁶ cm/s; in “in vitro [4]” (pH 7.4, Permeability (Papp) PAMPA (indiv.)), 3.9 ×10⁻⁶ cm/s. The “PAMPA Papp_avg” value in [9] amounted to 3.86 ×10⁻⁶ cm/s. In “in vitro [5]” (MDCK), this compound came in with a Papp A→B at 3 h, 10 µM of 4 ×10⁻⁶ cm/s.
As to `CC(C)C[C@@H]1NC(=O)[C@H](Cc2ccccc2)N(C)C(=O)[C@H]2CCCN2C(=O)[C@H](CC(C)C)NC(=O)[C@H](C)N(C)C(=O)[C@H](CC(C)C)NC(=O)[C@H](Cc2ccccc2)N(C)C(=O)[C@H]2CCCN2C(=O)[C@H](CC(C)C)NC(=O)[C@H](C)N(C)C1=O` [compound 1] (cyclo(L[NMeA]L[dP][NMeF]L[NMeA]L[dP][NMeF])), the oral bioavailability in [10] is 46 %F. Besides, the values for the Papp in series [2] and in [6] were 11.4 ×10⁻⁶ cm/s and 5 ×10⁻⁶ cm/s, respectively. In addition, the “PAMPA Papp” value in [11] is on record as 5.01 × 10^–6 cm/s.

These data come from PMC10885153, “Membrane Permeability in a Large Macrocyclic Peptide Driven by a Saddle-Shaped Conformation” (Journal of the American Chemical Society, 2024).
